Experimental data: PubChem BioAssay AID1963858 (Molecular Pharmacology Branch, DTP, NCI, 2024)

Tested on: HOP-62 multicell spheroids with HUVEC/MSC, viability
Assay: Anticancer human tumor HOP-62 cell line growth inhibition [KRAS2];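 further: viability read after a week of compound exposure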;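 on viability, T/C: 100% = DMSO vehicle-treated spheroids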
Conditions: for IC50: curve of first compound; for viability, T/C: stronger effect = lower value
Procedure, shortened: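 KRAS-mutant tumor cells were grown as spheroids with HUVEC endothelial cells and human MSCs as stroma. Targeted agents were tested alone and with KRAS pathway inhibitors. Doses started at or near clinical Cmax, or 10 microM, descending half-log.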

[1] = second compound 0.1 µM, first compound 0.01 µM
[2] = second compound 0.1 µM, first compound 0.0316 µM
[3] = second compound 0.1 µM, first compound 0.1 µM
[4] = second compound 0.1 µM, first compound 0.316 µM
[5] = second compound 0.1 µM, first compound 1 µM
[6] = second compound 0.1 µM, first compound 3.16 µM
[7] = second compound 0.316 µM, first compound 0.01 µM
[8] = second compound 0.316 µM, first compound 0.0316 µM
[9] = second compound 0.316 µM, first compound 0.1 µM
[10] = second compound 0.316 µM, first compound 0.316 µM
[11] = second compound 0.316 µM, first compound 1 µM
[12] = second compound 0.316 µM, first compound 3.16 µM
[13] = second compound 1 µM, first compound 0.01 µM
[14] = second compound 1 µM, first compound 0.0316 µM
[15] = second compound 1 µM, first compound 0.1 µM
[16] = second compound 1 µM, first compound 0.316 µM
[17] = second compound 1 µM, first compound 1 µM
[18] = second compound 1 µM, first compound 3.16 µM
[19] = second compound 3.16 µM, first compound 0.01 µM
[20] = second compound 3.16 µM, first compound 0.0316 µM
[21] = second compound 3.16 µM, first compound 0.1 µM
[22] = second compound 3.16 µM, first compound 0.316 µM
[23] = second compound 3.16 µM, first compound 1 µM
[24] = second compound 3.16 µM, first compound 3.16 µM
[25] = second compound 10 µM, first compound 0.01 µM
[26] = second compound 10 µM, first compound 0.0316 µM
[27] = second compound 10 µM, first compound 0.1 µM
[28] = second compound 10 µM, first compound 0.316 µM
[29] = second compound 10 µM, first compound 1 µM
[30] = second compound 10 µM, first compound 3.16 µM
[31] = second compound 0.1 µM, first compound 10 µM
[32] = second compound 0.316 µM, first compound 10 µM
[33] = second compound 1 µM, first compound 10 µM
[34] = second compound 3.16 µM, first compound 10 µM
[35] = second compound 10 µM, first compound 10 µM

Row | Compound | IC50 (second compound 0.1 µM) | IC50 (second compound 0.316 µM) | IC50 (second compound 1 µM) | IC50 (second compound 3.16 µM) | IC50 (second compound 10 µM) | viability, T/C [2] | viability, T/C [3] | viability, T/C [4] | viability, T/C [5] | viability, T/C [8] | viability, T/C [9] | viability, T/C [10] | viability, T/C [11] | viability, T/C [14] | viability, T/C [15] | viability, T/C [16] | viability, T/C [17] | viability, T/C [20] | viability, T/C [21] | viability, T/C [22] | also measured
1 | CC1COCCN1c1cc(-c2ccnn2C)c2ccnc(-c3ccn[nH]3)c2n1 (stereo not given) + CNCc1ccccc1-c1csc(C(C)Nc2nc(C)nc3cc(OC)c(OC)cc23)c1 | 54.9 nM | 61.1 nM | 36.9 nM | < 10 nM | < 10 nM | 73.1% | 25.3% | 13.5% | 14% | 78.8% | 28.7% | 14.2% | 15.2% | 53.9% | 25.2% | 17.4% | 14.7% | 0.24% | 2.16% | 0.06% | viability, T/C [1]: 106%; viability, T/C [6]: 16.4%; viability, T/C [7]: 106%; viability, T/C [12]: 14.3%; viability, T/C [13]: 94.9%; viability, T/C [18]: 12.8%; viability, T/C [19]: 3.68%; viability, T/C [23]: 0.06%; viability, T/C [24]: 0.27%; viability, T/C [25]: 0.1%; viability, T/C [26]: 0.64%; viability, T/C [27]: 0.08%; viability, T/C [28]: 0.09%; viability, T/C [29]: 0.58%; viability, T/C [30]: 0.16%
2 | CC1OCC2(CCN(c3cnc(Sc4ccnc(N)c4Cl)c(N)n3)CC2)C1N (stereo not given) + CNCc1ccccc1-c1csc(C(C)Nc2nc(C)nc3cc(OC)c(OC)cc23)c1 | > 10000 nM | > 10000 nM | 638 nM | < 31.6 nM | < 31.6 nM | 89.8% | 80.4% | 74.1% | 67.5% | 85.5% | 88% | 69.2% | 53.6% | 82.3% | 76.2% | 58.8% | 45.4% | 34.3% | 7.49% | 0.61% | viability, T/C [6]: 65.3%; viability, T/C [31]: 58.8%; viability, T/C [12]: 52.3%; viability, T/C [32]: 49.7%; viability, T/C [18]: 33.5%; viability, T/C [33]: 34.1%; viability, T/C [23]: 0.1%; viability, T/C [24]: 0.15%; viability, T/C [34]: 0.15%; viability, T/C [26]: 0.13%; viability, T/C [27]: 0.17%; viability, T/C [28]: 0.09%; viability, T/C [29]: 0.09%; viability, T/C [30]: 0.6%; viability, T/C [35]: 0.16%
3 | CCN1CCN(Cc2ccc(Nc3ncc(F)c(-c4cc(F)c5nc(C)n(C(C)C)c5c4)n3)nc2)CC1 + CNCc1ccccc1-c1csc(C(C)Nc2nc(C)nc3cc(OC)c(OC)cc23)c1 | > 1000 nM | > 1000 nM | 257 nM | < 3.16 nM | < 3.16 nM | 95.3% | 90.4% | 72.6% | 54.4% | 81.3% | 71% | 71.7% | 48.4% | 72.9% | 52.6% | 51.4% | 41.4% | 0.14% | 0.21% | 0.17% | viability, T/C (second compound 0.1 µM, first compound 0.00316 µM): 102%; viability, T/C [1]: 112%; viability, T/C (second compound 0.316 µM, first compound 0.00316 µM): 108%; viability, T/C [7]: 90.4%; viability, T/C (second compound 1 µM, first compound 0.00316 µM): 97%; viability, T/C [13]: 73.6%; viability, T/C (second compound 3.16 µM, first compound 0.00316 µM): 0.39%; viability, T/C [19]: 0.5%; viability, T/C [23]: 0.16%; viability, T/C (second compound 10 µM, first compound 0.00316 µM): 0.1%; viability, T/C [25]: 0.1%; viability, T/C [26]: 0.1%; viability, T/C [27]: 0.11%; viability, T/C [28]: 0.1%; viability, T/C [29]: 0.16%
4 | CCNC(=O)CC1N=C(c2ccc(Cl)cc2)c2cc(OC)ccc2-n2c(C)nnc21 (stereo not given) + CNCc1ccccc1-c1csc(C(C)Nc2nc(C)nc3cc(OC)c(OC)cc23)c1 | 438 nM | 245 nM | 136 nM | < 31.6 nM | < 31.6 nM | 103% | 74.4% | 52.3% | 43.1% | 92.3% | 72% | 44.7% | 30.9% | 86% | 54.3% | 38.2% | 29.7% | 0.15% | 0.21% | 0.07% | viability, T/C [6]: 37.3%; viability, T/C [31]: 35.1%; viability, T/C [12]: 33.6%; viability, T/C [32]: 32.6%; viability, T/C [18]: 28.1%; viability, T/C [33]: 28.6%; viability, T/C [23]: 0.06%; viability, T/C [24]: 0.06%; viability, T/C [34]: 0.13%; viability, T/C [26]: 0.1%; viability, T/C [27]: 0.09%; viability, T/C [28]: 0.1%; viability, T/C [29]: 0.09%; viability, T/C [30]: 0.23%; viability, T/C [35]: 0.17%
5 | Cn1nccc1Nc1nccc(-c2cc3c(s2)C(C)(C)N(CCN2CCOCC2)C3=O)n1 + CNCc1ccccc1-c1csc(C(C)Nc2nc(C)nc3cc(OC)c(OC)cc23)c1 | 1220 nM | 859 nM | 646 nM | < 31.6 nM | < 31.6 nM | 110% | 102% | 92.8% | 52.5% | 104% | 98.3% | 77.1% | 47.5% | 101% | 99% | 68.3% | 39.6% | 1.01% | 2.12% | 0.23% | viability, T/C [6]: 34.6%; viability, T/C [31]: 28.3%; viability, T/C [12]: 25.3%; viability, T/C [32]: 26.9%; viability, T/C [18]: 27.6%; viability, T/C [33]: 27.1%; viability, T/C [23]: 0.16%; viability, T/C [24]: 0.1%; viability, T/C [34]: 0.18%; viability, T/C [26]: 0.19%; viability, T/C [27]: 0.19%; viability, T/C [28]: 0.2%; viability, T/C [29]: 0.2%; viability, T/C [30]: 0.22%; viability, T/C [35]: 0.23%
